Experimental data as given in ChEMBL document CHEMBL5532634, “Oxazolidinone: A promising scaffold for the development of antibacterial drugs” (Eur J Med Chem, 2023).
Converted amounts (≈) assume the structure as drawn.

Tests used:
Type in all cases: functional
[1] = system: Staphylococcus aureus; assay: Antibacterial activity against Staphylococcus aureus ATCC 29213 assessed as reduction in bacterial growth incubated for 24 hrs by Mueller Hinton Agar based plate analysis
[2] = system: Staphylococcus aureus; assay: Antibacterial activity against Staphylococcus aureus ATCC 29213 assessed as bacterial growth inhibition incubated for 24 hrs by broth dilution method
[3] = system: Staphylococcus aureus; assay: Antibacterial activity against methicillin-resistant Staphylococcus aureus ATCC 3300 assessed as reduction in microbial growth measured after 24 hrs by broth microdilution analysis
[4] = system: Staphylococcus aureus; assay: Antibacterial activity against Linezolid-resistant Staphylococcus aureus assessed as reduction in bacterial growth
[5] = system: Enterococcus faecium; assay: Antibacterial activity against Linezolid-resistant Enterococcus faecium assessed as reduction in bacterial growth
[6] = system: Haemophilus influenzae; assay: Antibacterial activity against Haemophilus influenzae UC30063 assessed as reduction in bacterial growth by broth microdilution method
[7] = system: Moraxella catarrhalis; assay: Antibacterial activity against Moraxella catarrhalis UC30610 assessed as reduction in bacterial growth by broth microdilution method
[8] = system: Staphylococcus epidermidis; assay: Antibacterial activity methicillin-resistant Staphylococcus epidermidis UC12084 assessed as reduction in bacterial growth by broth microdilution method
[9] = system: Staphylococcus aureus; assay: In vivo Antibacterial activity against Methicillin-resistant Staphylococcus aureus in PO dosed mouse infected model assessed as reduction in bacterial load
[10] = system: Enterococcus faecalis; assay: Antibacterial activity against Enterococcus faecalis UC9217 assessed as reduction in bacterial growth by broth microdilution method
[11] = system: Staphylococcus aureus; assay: Antibacterial activity against Staphylococcus aureus ATCC 29213 assessed as reduction in microbial growth measured after 24 hrs by broth microdilution analysis
[12] = system: Staphylococcus aureus; assay: Antibacterial activity against Methicillin-resistant Staphylococcus aureus assessed as reduction in microbial growth by Muller Hinton broth based dilution assay
[13] = system: Staphylococcus aureus; assay: Antibacterial activity against Staphylococcus aureus ATCC 29213 assessed as reduction in bacterial growth incubated for 24 hrs by serial dilution method

CC(=O)NC[C@H]1CN(c2ccc3c(c2)OC[C@@H]2CCCN32)C(=O)O1
MIC [1]: 4 µg/mL (≈ 12.1 µM)

CC/C(S)=N\C[C@H]1CN(c2cc(F)c3c(c2)OC[C@@H]2CCCN32)C(=O)O1
MIC [2]: 0.5 µg/mL (≈ 1.32 µM)

CO/C(S)=N\C[C@H]1CN(c2cc(F)c3c(c2)OC[C@@H]2CCCN32)C(=O)O1
MIC [2]: 0.5 µg/mL (≈ 1.31 µM)

N=C(S)NC[C@H]1CN(c2cc(F)c3c(c2)OC[C@@H]2CCCN32)C(=O)O1
MIC [2]: 0.5 µg/mL (≈ 1.36 µM)

CC(=O)NC[C@H]1CN(c2ccc(C3=CCOCC3)c(F)c2)C(=O)O1
MIC [3]: 0.13 µg/mL

O=C1O[C@@H](COc2ccccn2)CN1c1ccc(C2=CCOCC2)c(F)c1
MIC [3]: 1 µg/mL

CC(=O)NC[C@H]1CN(c2ccc(N3CCN(c4c(F)cc5c(=O)c(C(=O)O)cn6c5c4OC[C@@H]6C)CC3)c(F)c2)C(=O)O1
MIC [4]: 2 µg/mL (≈ 3.35 µM) | MIC [5]: 0.5 µg/mL (≈ 0.837 µM)

CC(=O)NC[C@H]1CN(c2ccc(N3CCN(c4c(F)cc5c(=O)c(C(=O)O)cn6c5c4OCC6C)CC3)c(F)c2)C(=O)O1 (some centres undefined)
MIC [4]: 2 µg/mL (≈ 3.35 µM) | MIC [5]: 0.5 µg/mL (≈ 0.837 µM)

CC(=O)NC[C@H]1CN(c2ccc(-n3ccc(C#N)c3)c(F)c2)C(=O)O1
MIC [6]: 2 µg/mL (≈ 5.84 µM) | MIC [7]: 2 µg/mL (≈ 5.84 µM) | MIC [8]: 0.125 µg/mL (≈ 0.365 µM) | ED50 [9]: 1.9 mg/kg | MIC [10]: 0.125 µg/mL (≈ 0.365 µM)

CC(=O)NC[C@H]1CN(c2ccc(-n3cc(C#N)nn3)c(F)c2)C(=O)O1
MIC [6]: 2 µg/mL (≈ 5.81 µM) | MIC [7]: 2 µg/mL (≈ 5.81 µM) | MIC [8]: 0.125 µg/mL (≈ 0.363 µM) | ED50 [9]: 1.2 mg/kg | MIC [10]: 0.125 µg/mL (≈ 0.363 µM)

CC(=O)NC[C@H]1CN(c2ccc(-n3ncc(C#N)n3)c(F)c2)C(=O)O1
MIC [6]: 2 µg/mL (≈ 5.81 µM) | MIC [7]: 2 µg/mL (≈ 5.81 µM) | MIC [8]: 0.125 µg/mL (≈ 0.363 µM) | ED50 [9]: 1.9 mg/kg | MIC [10]: 0.125 µg/mL (≈ 0.363 µM)

C[C@@H](O)C(=O)N1CC=C(c2c(F)cc(N3C[C@H](COc4ccon4)OC3=O)cc2F)CC1
MIC [11]: 0.25 µg/mL

O=C1O[C@@H](Cn2ccnn2)CN1c1ccc(N2CCN(S(=O)(=O)c3cccc(C(F)(F)F)c3)CC2)c(F)c1
MIC [12]: 0.5 µg/mL

O=C1O[C@@H](Cn2ccnn2)CN1c1ccc(N2CCN(S(=O)(=O)c3ccc(Cl)cc3)CC2)c(F)c1
MIC [12]: 0.5 µg/mL

O=C1O[C@@H](Cn2ccnn2)CN1c1ccc(N2CCN(S(=O)(=O)c3cccc(F)c3)CC2)c(F)c1
MIC [12]: 0.5 µg/mL

Nc1cccc(S(=O)(=O)N2CCN(c3ccc(N4C[C@H](Cn5ccnn5)OC4=O)cc3F)CC2)c1
MIC [12]: 0.5 µg/mL

CC(=O)NC[C@H]1CN(c2ccc(N3CCN(c4cc5c(cc4F)c(=O)c(C(=O)O)cn5C4CC4)CC3)c(F)c2)C(=O)O1
MIC [4]: 2 µg/mL (≈ 3.44 µM) | MIC [5]: 0.5 µg/mL (≈ 0.86 µM)

CC(=O)NC[C@H]1CN(c2ccc(-n3cc(C(=O)O)c(=O)c4cc(F)c(N5CCN(C)CC5)cc43)c(F)c2)C(=O)O1
MIC [13]: > 64 µg/mL

O=C([C@H](O)CO)N1CC=C(c2c(F)cc(N3C[C@H](COc4ccon4)OC3=O)cc2F)CC1
MIC [11]: 0.25 µg/mL
